In ChEMBL document CHEMBL1201862, “PubChem BioAssay data set” (2004):
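A five-concentration, 48-hour dose response in 96-well plates underlies each endpoint, interpolated linearly between surrounding concentrations. Here, GI50 denotes the concentration required for 50% inhibition of growth.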 The source made the active and inactive calls. No stated cut-off is given here; in the data, active = GI50 up to about 1.1 µM and inactive = higher.

Assays:
Assay in all cases: inhibition of tumour cell growth, NCI panel, 48 h
MDA-N = system: MDA-N
UO-31 = system: UO-31
ACHN = system: ACHN
NCI-H23 = system: NCI-H23
HT-29 = system: HT-29
SK-MEL-28 = system: SK-MEL-28
OVCAR-8 = system: OVCAR-8
SF-539 = system: SF-539
MDA-MB-231 = system: MDA-MB-231
NCI-H522 = system: NCI-H522
T47D = system: T47D
DU-145 = system: DU-145
SF-268 = system: SF-268
786-0 = system: 786-0
IGROV-1 = system: IGROV-1
EKVX = system: EKVX
NCI-H226 = system: NCI-H226
UACC-257 = system: UACC-257
CCRF-CEM = system: CCRF-CEM
HL-60 = system: HL-60

Measured: GI50

COC(=O)C1C2C=CC(C2)N1S(=O)(=O)c1ccccc1 (configuration not stated)
inactive: MDA-N > 100 µM | UO-31 > 100 µM | ACHN > 100 µM | NCI-H23 > 100 µM | HT-29 > 100 µM | SK-MEL-28 > 100 µM | OVCAR-8 > 100 µM | SF-539 > 100 µM | MDA-MB-231 > 100 µM | NCI-H522 > 100 µM | T47D > 100 µM | DU-145 > 100 µM | SF-268 > 100 µM | 786-0 > 100 µM

O=C(O)CCC(C(=O)O)N1C(=O)C2C3CCC(C3)C2C1=O (configuration not stated)
inactive: IGROV-1 > 100 µM | MDA-N > 100 µM | EKVX > 100 µM | ACHN > 100 µM | NCI-H23 > 100 µM | HT-29 > 100 µM | NCI-H226 > 100 µM | UACC-257 > 100 µM | SK-MEL-28 > 100 µM | OVCAR-8 > 100 µM | SF-539 > 100 µM | MDA-MB-231 > 100 µM | NCI-H522 > 100 µM | T47D > 100 µM | DU-145 > 100 µM | SF-268 > 100 µM | 786-0 > 100 µM

COc1ccc(/C=C2/S/C(=N\c3ccccc3)N(NC(=O)Cc3ccccc3)C2=O)c(OC)c1
inactive: IGROV-1 > 100 µM | MDA-N > 100 µM | EKVX > 100 µM | UO-31 98.9 µM | ACHN > 100 µM | NCI-H23 > 100 µM | HT-29 > 100 µM | NCI-H226 > 100 µM | UACC-257 > 100 µM | SK-MEL-28 > 100 µM | OVCAR-8 > 100 µM | SF-539 > 100 µM | CCRF-CEM 82.6 µM | MDA-MB-231 69 µM | T47D 43.9 µM | DU-145 > 100 µM | SF-268 > 100 µM | 786-0 > 100 µM

CO/N=C(\C(=O)[N-]n1cn[n+](CC(=O)OC(C)(C)C)c1)c1csc(NC(c2ccccc2)(c2ccccc2)c2ccccc2)n1
inactive: HL-60 > 10 µM | IGROV-1 > 10 µM | MDA-N > 10 µM | EKVX > 10 µM | UO-31 > 10 µM | ACHN > 10 µM | NCI-H23 > 10 µM | HT-29 > 10 µM | NCI-H226 > 10 µM | UACC-257 > 10 µM | SK-MEL-28 > 10 µM | OVCAR-8 > 10 µM | SF-539 > 10 µM | CCRF-CEM > 10 µM | NCI-H522 > 10 µM | T47D > 10 µM | DU-145 > 10 µM | SF-268 > 10 µM | 786-0 > 10 µM

CC(=O)Nc1ccc2cc(C#N)c(=O)[nH]c2n1
inactive: IGROV-1 > 100 µM | MDA-N > 100 µM | EKVX > 100 µM | UO-31 > 100 µM | ACHN > 100 µM | NCI-H23 > 100 µM | NCI-H226 > 100 µM | UACC-257 > 100 µM | SK-MEL-28 > 100 µM | OVCAR-8 > 100 µM | SF-539 > 100 µM | MDA-MB-231 > 100 µM | NCI-H522 > 100 µM | T47D > 100 µM | SF-268 > 100 µM | 786-0 > 100 µM

NC1CC(=O)c2cc(Br)sc21 (configuration not stated)
inactive: HL-60 > 100 µM | IGROV-1 > 100 µM | MDA-N > 100 µM | EKVX > 100 µM | UO-31 > 100 µM | ACHN > 100 µM | HT-29 > 100 µM | UACC-257 > 100 µM | SK-MEL-28 > 100 µM | OVCAR-8 > 100 µM | SF-539 > 100 µM | CCRF-CEM > 100 µM | MDA-MB-231 > 100 µM | T47D > 100 µM | DU-145 > 100 µM | SF-268 > 100 µM | 786-0 > 100 µM

CCCC/C=C/C/C=C/CCCCCCCCC(=O)OCC1CCCN2CCCCC12 (configuration not stated)
inactive: HL-60 17.3 µM | MDA-N > 100 µM | EKVX 54.6 µM | UO-31 59.4 µM | ACHN > 100 µM | NCI-H23 > 100 µM | HT-29 > 100 µM | NCI-H226 > 100 µM | UACC-257 63.2 µM | SK-MEL-28 > 100 µM | OVCAR-8 > 100 µM | SF-539 > 100 µM | CCRF-CEM 28.5 µM | MDA-MB-231 > 100 µM | T47D 12.8 µM | DU-145 > 100 µM | SF-268 > 100 µM | 786-0 > 100 µM

COC(=O)C(=O)C(C(=O)C(=O)Nc1ccc([N+](=O)[O-])cc1[N+](=O)[O-])c1nc2ccc(Cl)cc2nc1O (configuration not stated)
inactive: HL-60 > 100 µM | MDA-N > 100 µM | UO-31 80.4 µM | ACHN > 100 µM | NCI-H23 > 100 µM | HT-29 > 100 µM | NCI-H226 78.5 µM | UACC-257 > 100 µM | SK-MEL-28 > 100 µM | OVCAR-8 > 100 µM | SF-539 > 100 µM | CCRF-CEM > 10 µM | MDA-MB-231 50.2 µM | T47D > 100 µM | DU-145 > 100 µM | SF-268 74.1 µM | 786-0 > 100 µM

O=C1NC(Nc2cccc(Cl)c2)=N/C1=C\c1ccc(Cl)c(Cl)c1
inactive: HL-60 1.95 µM | IGROV-1 5.66 µM | MDA-N 4.52 µM | EKVX 3.67 µM | UO-31 7.29 µM | ACHN 5.05 µM | NCI-H23 3.44 µM | HT-29 6.73 µM | NCI-H226 3.44 µM | UACC-257 8.07 µM | SK-MEL-28 12.7 µM | OVCAR-8 4.34 µM | SF-539 9.31 µM | CCRF-CEM 3.45 µM | NCI-H522 2.52 µM | T47D 3.52 µM | DU-145 7.52 µM | SF-268 4.94 µM | 786-0 3.76 µM

Cc1cc([C@H](C#N)c2nc3ccccc3s2)nc(Cl)n1
inactive: HL-60 3.67 µM | IGROV-1 3.52 µM | MDA-N 3.55 µM | EKVX 18.6 µM | UO-31 4.39 µM | ACHN 9.25 µM | NCI-H23 2.78 µM | HT-29 3.88 µM | NCI-H226 3.46 µM | UACC-257 5.41 µM | SK-MEL-28 6.67 µM | OVCAR-8 3.18 µM | SF-539 4.92 µM | CCRF-CEM 3.82 µM | MDA-MB-231 3 µM | T47D 2.92 µM | DU-145 23.7 µM | SF-268 5.01 µM | 786-0 4.76 µM

Nc1ncnc2c1ncn2C(=O)NC12CC3CC(CC(C3)C1)C2
inactive: HL-60 > 100 µM | MDA-N > 100 µM | EKVX > 100 µM | UO-31 > 100 µM | ACHN > 100 µM | NCI-H23 > 100 µM | HT-29 > 100 µM | NCI-H226 > 100 µM | UACC-257 > 100 µM | SK-MEL-28 > 100 µM | OVCAR-8 > 100 µM | SF-539 > 100 µM | CCRF-CEM 44 µM | MDA-MB-231 > 100 µM | T47D 4.97 µM | DU-145 > 100 µM | SF-268 > 100 µM | 786-0 > 100 µM
